Assay results reported in patent publication US8431514B2, “4-cyano-3-benzoylamino-N-phenyl-benzamides for use in pest control” (Syngenta Crop Protection LLC, priority 2009, dated 2013).
Read-outs that look alike come from different tables or passages of the source.

Experiments:
Type in all cases: in vivo
Spodoptera littoralis = Spodoptera littoralis (Egyptian cotton leafworm) leaf disc spray test; details: foliar, 72 h, application rate 200 ppm, cotton leaf discs, 5 L1 larvae, mortality, feeding behavior and growth regulation 3 days after treatment
Experimental: (§1) These Examples illustrate the insecticidal and acaricidal properties of the compounds of formula (I). The tests were performed as follows:
(§2) Cotton leaf discs were placed on agar in a 24-well microtiter plate and sprayed with test solutions at an application rate of 200 ppm. After drying, the leaf discs were infested with 5 L1 larvae. The samples were checked for mortality, feeding behavior, and growth regulation 3 days after treatment (DAT). The following compound gave at least 80% control of Spodoptera littoralis: A1, A2, A3, A4, A5, A6, A7, A8, A9, A10, A11, A12, A14, A15, A16, A17, A18, A19, A20. Heliothis Virescens (Tobacco Budworm): Eggs (0-24 h old) were placed in 24-well microtiter plate on artificial diet and treated with test solutions at an application rate of 200 ppm (concentration in well 18 ppm) by pipetting. After an incubation period of 4 days, samples were checked for egg mortality, larval mortality, and growth regulation. The following compound gave at least 80% control of Heliothis virescens: A1, A2, A3, A4, A5, A6, A7, A8, A9, A10, A11, A12, A14, A15, A16, A17, A18, A19, A20. Plutella Xylostella (Diamond Back Moth): 24-well microtiter plate (MTP) with artificial diet was treated with test solutions at an application rate of 200 ppm (concentration in well 18 ppm) by pipetting. After drying, the MTP's were infested with L2 larvae (7-12 per well). After an incubation period of 6 days, samples were checked for larval mortality and growth regulation. The following compound gave at least 80% control of Plutella xylostella: A1, A2, A3, A4, A5, A6, A7, A8, A9, A10, A11, A12, A13, A14, A15, A16, A17, A18, A19, A20. Diabrotica Balteata (Corn Root Worm): A 24-well microtiter plate (MTP) with artificial diet was treated with test solutions at an application rate of 200 ppm (concentration in well 18 ppm) by pipetting. After drying, the MTP's were infested with L2 larvae (6-10 per well). After an incubation period of 5 days, samples were checked for larval mortality and growth regulation. The following compound gave at least 80% control of Diabrotica balteata: A1, A2, A3, A4, A5, A6, A7, A8, A9, A10, A11, A12, A13, A14, A16, A17, A18, A19, A20. Thrips Tabaci (Onion Thrips): Sunflower leaf discs were placed on agar in a 24-well microtiter plate and sprayed with test solutions at an application rate of 200 ppm. After drying, the leaf discs were infested with an […] population of mixed ages. After an incubation period of 7 days, samples were checked for mortality. The following compounds gave at least 80% control of Thrips tabaci: A1, A2, A3, A4, A5, A6, A7, A8, A9, A10, A14, A16, A17, A18, A19, A20. Tetranychus Urticae (Two-Spotted Spider Mite): Bean leaf discs on agar in 24-well microtiter plates were sprayed with test solutions at an application rate of 200 ppm. After drying, the leaf discs are infested with mite populations of mixed ages. 8 days later, discs are checked for egg mortality, larval mortality, and adult mortality. The following compounds gave at least 80% control of Tetranychus urticae: A1, A2, A3, A4, A5, A6, A7, A8, A9, A10, A11, A12, A13, A14, A15, A16, A17, A19, A20.

Heliothis virescens = Heliothis virescens (tobacco budworm) egg test on artificial diet; details: 96 h, application rate 200 ppm (concentration in well 18 ppm), eggs 0-24 h old on artificial diet, egg mortality, larval mortality and growth regulation after 4 days
Experimental: as §1, §2

Plutella xylostella = Plutella xylostella (diamond back moth) artificial diet test; details: 144 h, application rate 200 ppm (concentration in well 18 ppm), L2 larvae, larval mortality and growth regulation after 6 days
Experimental: as §1, §2

Diabrotica balteata = Diabrotica balteata (corn root worm) artificial diet test; details: 120 h, application rate 200 ppm (concentration in well 18 ppm), L2 larvae, larval mortality and growth regulation after 5 days
Experimental: as §1, §2

Thrips tabaci = Thrips tabaci (onion thrips) sunflower leaf disc spray test; details: foliar, 168 h, application rate 200 ppm, sunflower leaf discs, population of mixed ages, mortality after 7 days
Experimental: as §1, §2

Tetranychus urticae = Tetranychus urticae (two-spotted spider mite) bean leaf disc spray test; details: foliar, 192 h, read-out: control of Tetranychus urticae
Experimental: as §1, §2

[1] = application rate 200 ppm, bean leaf discs, mite populations of mixed ages, egg, larval and adult mortality 8 days later

Measured: pest or weed control at 200 ppm

Cc1cc(C#N)ccc1C(=O)Nc1cc(C(=O)Nc2c(Cl)cc(C(F)(C(F)(F)F)C(F)(F)C(F)(F)F)cc2Cl)ccc1C#N (stereo not drawn) [A8, 4-cyano-3-(4′-cyano-2′-methylbenzoylamino)-N-[2,6-dichloro-4-(1,2,2,3,3,3-hexafluoro-1-trifluoromethylpropyl)phenyl]benzamide]
≥ 80%: Spodoptera littoralis | Heliothis virescens | Plutella xylostella | Diabrotica balteata | Thrips tabaci | Tetranychus urticae; [1]

COCc1cc(C(F)(C(F)(F)F)C(F)(F)C(F)(F)F)cc(C)c1NC(=O)c1ccc(C#N)c(NC(=O)c2ccc(C#N)cc2C)c1 (stereo not drawn) [A9, 4-cyano-3-(4′-cyano-2′-methyl-benzoylamino)-N-[4-(1,2,2,3,3,3-hexafluoro-1-trifluoromethylpropyl)-2-methoxymethyl-6-methylphenyl]benzamide]
≥ 80%: Spodoptera littoralis | Heliothis virescens | Plutella xylostella | Diabrotica balteata | Thrips tabaci | Tetranychus urticae; [1]

CSc1cc(C(F)(C(F)(F)F)C(F)(F)C(F)(F)F)cc(Cl)c1NC(=O)c1ccc(C#N)c(NC(=O)c2ccc(C#N)cc2C)c1 (stereo not drawn) [A10, N-[2-chloro-4-(1,2,2,3,3,3-hexafluoro-1-trifluoromethylpropyl)-6-methylthiophenyl]-4-cyano-3-(4′-cyano-2′-methylbenzoylamino)benzamide]
≥ 80%: Spodoptera littoralis | Heliothis virescens | Plutella xylostella | Diabrotica balteata | Thrips tabaci | Tetranychus urticae; [1]

Cc1cc(C#N)ccc1C(=O)Nc1cc(C(=O)Nc2c(Cl)cc(C(F)(C(F)(F)F)C(F)(F)F)c(F)c2Cl)ccc1C#N [A14, 4-cyano-3-(4′-cyano-2′-methylbenzoylamino)-N-[2,6-dichloro-3-fluoro-4-(1,2,2,2-tetrafluoro-1-trifluoromethylethyl)phenyl]benzamide]
≥ 80%: Spodoptera littoralis | Heliothis virescens | Plutella xylostella | Diabrotica balteata | Thrips tabaci | Tetranychus urticae; [1]

Cc1cc(C#N)ccc1C(=O)Nc1cc(C(=O)Nc2c(C)cc(C(F)(C(F)(F)F)C(F)(F)C(F)(F)F)cc2C)ccc1C#N (stereo not drawn) [A16, 4-cyano-3-(4′-cyano-2′-methyl-benzoylamino)-N-[2,6-dimethyl-4-(1,2,2,3,3,3-hexafluoro-1-trifluoromethylpropyl)phenyl]benzamide]
≥ 80%: Spodoptera littoralis | Heliothis virescens | Plutella xylostella | Diabrotica balteata | Thrips tabaci | Tetranychus urticae; [1]

Cc1cc(C#N)ccc1C(=O)Nc1cc(C(=O)Nc2c(C)cc(C3(F)C(F)(F)C(F)(F)C(F)(F)C(F)(F)C3(F)F)cc2C)ccc1C#N [A17, 4-cyano-3-(4′-cyano-2′-methylbenzoylamino)-N-[2,6-dimethyl-4-(undecafluorocyclohexyl)phenyl]benzamide]
≥ 80%: Spodoptera littoralis | Heliothis virescens | Plutella xylostella | Diabrotica balteata | Thrips tabaci | Tetranychus urticae

Cc1cc(C#N)ccc1C(=O)Nc1cc(C(=O)Nc2c(Cl)cc(C(F)(C(F)(F)F)C(F)(F)F)cc2Cl)ccc1C#N [A19, 4-cyano-3-(4′-cyano-2′-methylbenzoylamino)-N-[2,6-dichloro-4-(1,2,2,2-tetrafluoro-1-trifluoromethylethyl)phenyl]benzamide]
≥ 80%: Spodoptera littoralis | Heliothis virescens | Plutella xylostella | Diabrotica balteata | Thrips tabaci | Tetranychus urticae; [1]

Cc1cc(C#N)ccc1C(=O)Nc1cc(C(=O)Nc2c(Cl)cc(C(F)(C(F)(F)F)C(F)(F)F)cc2Br)ccc1C#N [A20, 4-cyano-3-(4′-cyano-2′-methylbenzoylamino)-N-[2-bromo-6-chloro-4-(1,2,2,2-tetrafluoro-1-trifluoromethylethyl)phenyl]benzamide]
≥ 80%: Spodoptera littoralis | Heliothis virescens | Plutella xylostella | Diabrotica balteata | Thrips tabaci | Tetranychus urticae; [1]
